This assay has as its target recombinant eIF4E (Homo sapiens (Human), UniProt P06730). In words: Fluorescence polarization competition assay for eIF4E binding potency. As to the method: Compounds were screened for eIF4E binding potency using a fluorescence polarization competition assay. All binding reactions were performed in fluorescence polarization buffer (FPB) containing 20 mM Tris pH 7.5, 100 mM NaCl, 1 mM DTT, and 0.02% Tween-20. Final binding reactions contained 75 nM recombinant eIF4E (Beryllium, custom order), 20 nM EDA-m^7GDP-ATTO-550 (Jena Bioscience, NU-827-550) and varying concentrations of the inhibitory compound of interest. Final DMSO concentration in each reaction was 1%.
eIF4E protein was pre-incubated with EDA-m^7GDP-ATTO-550 in FPB at 2× concentrations for 5 minutes prior to the addition of compounds. Compounds (100×) were prepared using 3-fold serial dilutions in 100% DMSO, and subsequently diluted 1:50 in FPB to produce 2× stocks. 50 μl of 2× eIF4E/EDA-m^7GDP-ATTO-550 were transferred to the wells of a 96-well half-area black flat bottom polystyrene plate. 50 μl of 2× test compound were added, and binding reactions were allowed to equilibrate for 30 minutes at room temperature while protected from light. The fluorescent polarization signal was detected using a Victor 2 multi-label counter (Perkin Elmer) and the concentration necessary to achieve inhibition of eIF4E/EDA-m^7GDP-ATTO-550 binding by 50% (IC50) was calculated using data from an 8-point compound dilution series.
In Table 4A, IC50 values of less than 0.05 μM are labelled as “+++”, from 1 to 0.05 μM are labelled as “++”, and greater than 1 μM are labelled as “+”. ND=not determined.

[1] abbreviates: fluorescence polarization competition, 75 nM recombinant eIF4E, 20 nM EDA-m7GDP-ATTO-550, IC50 class, read-out: elF4E FP.
Where [2] appears, read: inhibition of eIF4E/EDA-m7GDP-ATTO-550 binding by 50%, Table 4B calculated values, read-out: IC50.
[3] abbreviates: inhibition of eIF4E/EDA-m7GDP-ATTO-550 binding, calculated IC50 values, Table 4B, read-out: IC50.

Where two headings read alike, the source gives them in different places. Where only a bound is given, the exact number is not on record here.

Chain of recombinant eIF4E (P06730 whole entry): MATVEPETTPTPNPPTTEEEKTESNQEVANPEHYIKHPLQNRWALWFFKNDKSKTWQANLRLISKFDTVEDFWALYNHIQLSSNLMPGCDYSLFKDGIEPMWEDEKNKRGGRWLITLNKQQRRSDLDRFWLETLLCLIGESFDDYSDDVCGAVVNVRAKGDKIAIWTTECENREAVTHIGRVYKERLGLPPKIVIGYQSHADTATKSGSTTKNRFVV

On to `CSc1c(-c2cc(Cl)ccc2OCCn2c(C)nc3cnc(C4CC4)c(C#N)c3c2=O)ccnc1C(=O)O` [compound 757], for which the IC50 reads like this: under setting [1], 50 to 1000 nM; under setting [2], 137 nM.

Turning to `O=C(O)c1cccc(-c2cc(Cl)ccc2OCCn2cnc3nnccc3c2=O)c1` [compound 18], the IC50 under setting [1] was in the range of 50 to 1000 nM and the IC50 under setting [2] was 832 nM.

In the case of `N#Cc1cc2c(=O)n(CCOc3ccc(Cl)cc3-c3cncc(C(=O)O)n3)cnc2cn1` [compound 85], the IC50 runs as follows: under setting [1], above 1000 nM; under setting [2], 1850 nM.

In the case of `Cc1nc2cc(C(F)(F)F)cc(C#N)c2c(=O)n1CCOc1ccc(Cl)cc1-c1ccnc2c1CCC2C(=O)O` (stereo not drawn) [compound 496], the IC50 was above 1000 nM under setting [1] and 1060 nM under setting [2].

As for `CCc1cc(-c2c(C(F)(F)F)cc3nc(C)n(CCOc4ccc(Cl)cc4-c4cc(C)nc5c(C(=O)O)csc45)c(=O)c3c2C#N)ccn1` [compound 468], the IC50 by setting is: under setting [1], below 50 nM; under setting [2], 4.36 nM.

On to `Cc1nc2cc(C(F)(F)F)c(N3CCN(C)CC3)c(C#N)c2c(=O)n1CCOc1ccc(Cl)cc1-c1ccnc2c(P(=O)(O)O)csc12` [compound 1613], for which, under setting [3], the IC50 is 16.1 nM.

Turning to `Cc1cc(-c2cc(Cl)ccc2OCCn2c(C)nc3c(C)nc(CN(C)C)cc3c2=O)c2scc(C(=O)O)c2n1` [compound 1959], under setting [3], the IC50 was 46.3 nM.

For the molecule `Cc1nc2cnc(N(C)C3CCN([C@H]4C[C@H](F)C4)CC3)c(C#N)c2c(=O)n1CC#Cc1ccc(Cl)cc1-c1ccnc2c(C(=O)NS(=O)(=O)c3ccccn3)csc12` [compound 1793], the IC50 under setting [3] is 7.29 nM.

Take `Cc1ccc(-c2cc(Cl)ccc2OCCn2c(C)nc3cnc(-c4ccncc4)c(C#N)c3c2=O)c2scc(C(=O)O)c12` [compound 762]: the IC50 was below 50 nM under setting [1] and 33.7 nM under setting [2].

For the molecule `Cc1nc2cnc(N(C)C3CCN(C(C)C(F)F)CC3)c(C#N)c2c(=O)n1CC#Cc1ccc(Cl)cc1-c1ccnc2c(C(=O)O)csc12` (stereo not drawn) [compound 1518], the IC50 under setting [3] is 10.7 nM.

With `CCc1cc(-c2cc(Cl)ccc2OCCn2c(C)nc3c(Cl)nc(C4CC4)c(C#N)c3c2=O)c2scc(C(=O)O)c2n1` [compound 1198], the IC50 was below 50 nM under setting [1] and 13 nM under setting [3].

For the molecule `Cc1cc(-c2cc(Cl)ccc2OCCn2c(C)nc3cc(C(F)(F)F)c(-c4ccncn4)nc3c2=O)c2scc(C(=O)O)c2n1` [compound 767], the IC50 under setting [1] was below 50 nM and the IC50 under setting [2] was 7.51 nM.

In the case of `Cc1ccc(-c2cc(Cl)ccc2OCCn2c(C)nc3c(C#N)nc(-c4ccccn4)c(C)c3c2=O)c2scc(C(=O)O)c12` [compound 743], the IC50 by setting is: under setting [1], 50 to 1000 nM; under setting [2], 188 nM.

In the case of `Cc1nc2cnc(N(C)C3CCN(C4CC4)CC3)c(C#N)c2c(=O)n1CCOc1ccc(Cl)cc1-c1ccnc2c(C(=O)O)csc12` [compound 1319], the IC50 under setting [3] is 13.6 nM.

For the molecule `Cc1sc2c(-c3cc(Cl)ccc3OCCn3c(C)nc4cc(C(F)(F)F)cc(C#N)c4c3=O)ccnc2c1C(=O)O` [compound 205], the IC50 reads like this: under setting [1], 50 to 1000 nM; under setting [2], 101 nM.

On to `Cc1nc2cnc(N3CCN(C4CC4)CC3(C)C)c(C#N)c2c(=O)n1CC#Cc1ccc(Cl)cc1-c1ccnc2c(C(=O)O)csc12` [compound 1102], for which the IC50 is, setting by setting: under setting [1], below 50 nM; under setting [2], 19.2 nM.

Consider `Cc1cc(-c2cc(Cl)ccc2OCCn2c(C)nc3cc(C(F)(F)F)c(OCC(F)F)c(C#N)c3c2=O)c2scc(C(=O)O)c2n1` [compound 1197], for which the IC50 was below 50 nM under setting [1] and 5.93 nM under setting [3].

Consider `Cc1nc2cnc(N(C)C3CCN(CC(C)(F)F)CC3)c(C#N)c2c(=O)n1CC#Cc1ccc(Cl)cc1-c1ccnc2c(C(=O)NS(=O)(=O)c3ccccn3)csc12` [compound 1146], for which the IC50 under setting [1] was below 50 nM and the IC50 under setting [2] was 14.4 nM.

As to `Cc1nc2cnc(N(C)C3CCN(CC(F)(F)F)CC3)c(C#N)c2c(=O)n1CC#Cc1ccc(Cl)cc1-c1ccnc2c(C(=O)NS(C)(=O)=O)csc12` [compound 1501], the IC50 under setting [3] was 20.5 nM.

As for `Cc1cc(-c2cc(Cl)ccc2OCCn2c(C)nc3cc(C(F)(F)F)c(N4CCNCC4)c(C#N)c3c2=O)c2sc(C)c(C(=O)O)c2n1` [compound 879], the IC50 under setting [1] is below 50 nM and the IC50 under setting [2] is 7.31 nM.

Turning to `Cc1nc2cnc(N3CCN(C)C4CC43)c(C#N)c2c(=O)n1C/C=C/c1ccc(Cl)cc1-c1ccnc2c(C(=O)O)csc12` (stereo not drawn) [compound 1347], the IC50 under setting [3] was 41.4 nM.

Turning to `Cc1c(S(C)(=O)=O)c2cc(C(F)(F)F)cc(C#N)c2c(=O)n1CCOc1ccc(Cl)cc1-c1ccnc2c(C(=O)O)csc12` [compound 318], the IC50 by setting is: under setting [1], below 50 nM; under setting [2], 2.92 nM.

`Cc1cc(-c2cc(Cl)ccc2OCCn2c(C)nc3cnc(-c4cc(Cl)ccc4Cl)c(C#N)c3c2=O)c2scc(C(=O)O)c2n1` [compound 954]: the IC50 is below 50 nM under setting [1] and 8.29 nM under setting [2].

In the case of `Cc1cc(-c2cc(Cl)ccc2OCCn2c(C)nc3cc(C(F)(F)F)c(-c4cnn(C)c4C)c(C#N)c3c2=O)c2scc(C(=O)O)c2n1` [compound 1032], the IC50 under setting [1] was below 50 nM and the IC50 under setting [2] was 6.2 nM.

On to `O=C(O)c1cccc(-c2cc(Cl)ccc2OCCn2ccc3cnccc3c2=O)c1` [compound 5], for which the IC50 reads like this: under setting [1], above 1000 nM; under setting [2], 7640 nM.

As for `CCN(c1ncc2nc(C)n(CC#Cc3ccc(Cl)cc3-c3ccnc4c(C(=O)NS(=O)(=O)c5cccnc5)csc34)c(=O)c2c1C#N)C1CCN([C@H]2C[C@@H](OC(F)(F)F)C2)CC1` [compound 1780], the IC50 under setting [3] is 10.9 nM.

As to `Cc1cc(-c2cc(Cl)ccc2OCCn2c(C)nc3cc(Cl)c(N4CCC(F)(F)CC4)c(C#N)c3c2=O)c2scc(C(=O)O)c2n1` [compound 919], the IC50 was below 50 nM under setting [1] and 17.7 nM under setting [2].

On to `Cc1nc2cnc(-c3ccncc3)c(C#N)c2c(=O)n1CC#Cc1ccc(Cl)cc1-c1ccnc2c(C(=O)O)csc12` [compound 770], for which the IC50 runs as follows: under setting [1], below 50 nM; under setting [2], 14 nM.

On to `Cc1cc(-c2cc(Cl)ccc2OCCn2c(=O)c3c(C#N)cc(C(F)(F)F)cc3n(C)c2=O)c2scc(C(=O)O)c2n1` [compound 1975], for which the IC50 under setting [3] was 109 nM.

For the molecule `Cc1sc2c(-c3cc(Cl)ccc3OCCn3c(C)nc4cc(C(F)(F)F)c(N5CCN(C)CC5)cc4c3=O)ccnc2c1C(=O)O` [compound 1210], the IC50 reads like this: under setting [1], below 50 nM; under setting [3], 48.3 nM.

In the case of `CON(C)c1ncc2nc(C)n(CCOc3ccc(Cl)cc3-c3cc(C)nc4c(C(=O)O)csc34)c(=O)c2c1C#N` [compound 976], the IC50 is below 50 nM under setting [1] and 19 nM under setting [2].

With `Cc1nc2cnc(N3CCN(CCF)CC3)c(C#N)c2c(=O)n1CCOc1ccc(Cl)cc1-c1ccnc2c(C(=O)O)csc12` [compound 1302], under setting [3], the IC50 was 30.7 nM.

`Cc1cc(-c2cc(Cl)ccc2OCCn2c(C)nc3cc(C(F)(F)F)c(N4CCN(C)CC4)c(C#N)c3c2=O)c2sccc2n1` [compound 836]: the IC50 is below 50 nM under setting [1] and 2.33 nM under setting [2].

Consider `O=C(O)c1cccc(-c2cc(Cl)ccc2OCCc2cc(C(F)(F)F)nc3nc(Nc4ccccc4)[nH]c(=O)c23)c1` [compound 178], for which the IC50 by setting is: under setting [1], 50 to 1000 nM; under setting [2], 140 nM.

Take `Cc1nc2cc(OC(F)F)c(Cl)c(C#N)c2c(=O)n1CCOc1ccc(Cl)cc1-c1ccnc2c(C(=O)O)csc12` [compound 537]: the IC50 is, setting by setting: under setting [1], below 50 nM; under setting [2], 46.6 nM.

In the case of `Cc1nc2c(C3CCC(F)(F)CC3)ncc(C#N)c2c(=O)n1CCOc1ccc(Cl)cc1-c1ccnc2c(C(=O)O)csc12` [compound 284], the IC50 is below 50 nM under setting [1] and 19.6 nM under setting [2].

`COc1cc(-c2cc(Cl)ccc2OCCn2cnc3cnc(C#N)cc3c2=O)cc(C(=O)O)c1OC` [compound 107]: the IC50 is above 1000 nM under setting [1] and 3820 nM under setting [2].

For the molecule `Cc1nc2cnc(N3CCC4(CC3)CN(CC(F)F)C4)c(C#N)c2c(=O)n1CC#Cc1ccc(Cl)cc1-c1ccnc2c(C(=O)O)csc12` [compound 1136], the IC50 reads like this: under setting [1], below 50 nM; under setting [2], 17 nM.

Take `Cn1cc(CCOc2ccc(Cl)cc2-c2ccnc3c(C(=O)O)csc23)c(=O)c2c(C#N)cc(C(F)(F)F)cc21` [compound 353]: the IC50 is, setting by setting: under setting [1], 50 to 1000 nM; under setting [2], 101 nM.

For the molecule `Cc1nc2cnc(N3CCN(C4CC(F)(F)C4)CC3)c(C#N)c2c(=O)n1CC#Cc1ccc(Cl)cc1-c1ccnc2c(C(=O)O)csc12` [compound 1355], the IC50 under setting [3] is 24.8 nM.

For the molecule `Cc1nc2cc(OC(F)F)c(OC(F)F)c(C#N)c2c(=O)n1CCOc1ccc(Cl)cc1-c1ccnc2c(C(=O)O)csc12` [compound 541], the IC50 is, setting by setting: under setting [1], below 50 nM; under setting [2], 49.1 nM.

With `CCN(c1ncc2nc(C)n(CC#Cc3ccc(Cl)cc3-c3ccnc4c(C(=O)NS(=O)(=O)c5ccncc5)csc34)c(=O)c2c1C#N)C1CCN(C2CC(F)(F)C2)CC1` [compound 1838], the IC50 under setting [3] is 12.3 nM.
